Source: ChEMBL document CHEMBL1795303, “Synthesis and evaluation of benzofuran-2-yl(phenyl)methanone derivatives as ligands for β-amyloid plaques” (Bioorg Med Chem, 2011)
Active and inactive are the calls of the source. The rule behind the calls is not given here.

Tests used:
[1] = Displacement of [125I]-IMPY from amyloid beta (1 to 42) after 2 hrs by gamma counting
Mus musculus [2] = organism: Mus musculus; assay: Binding affinity to beta-amyloid in APP/PS1 transgenic C57 mouse brain at 5 uCi/[…] after 1 hr by autoradiography; assay type: tissue-based; conditions: tested as the 125I-labelled form
Kidney [3] = assay: Biodistribution in ddY mouse kidney at 0.9 uCi, iv after 30 mins by gamma counting; assay type: ADME, organism-based; conditions: in vivo, 0.5 h
Brain [4] = assay: Biodistribution in ddY mouse brain at 0.9 uCi, iv after 15 mins by gamma counting; assay type: ADME, organism-based; conditions: in vivo, 0.25 h
Spleen [5] = assay: Biodistribution in ddY mouse spleen at 0.9 uCi, iv after 15 mins by gamma counting; assay type: ADME, organism-based; conditions: in vivo, 0.25 h
Lung [6] = assay: Biodistribution in ddY mouse lung at 0.9 uCi, iv after 30 mins by gamma counting; assay type: ADME, organism-based; conditions: in vivo, 0.5 h
Mus musculus [7] = assay: Biodistribution in ddY mouse thyroid assessed per organ at 0.9 uCi, iv after 2 mins by gamma counting; assay type: ADME, organism-based, Thyroid gland; conditions: in vivo
Blood [8] = assay: Biodistribution in ddY mouse blood at 0.9 uCi, iv after 15 mins by gamma counting; assay type: ADME, organism-based; conditions: in vivo, 0.25 h
Blood [9] = assay: Biodistribution in ddY mouse blood at 0.9 uCi, iv after 60 mins by gamma counting; assay type: ADME, organism-based; conditions: in vivo, 1 h
Stomach [10] = assay: Biodistribution in ddY mouse stomach assessed per organ at 0.9 uCi, iv after 15 mins by gamma counting; assay type: ADME, organism-based; conditions: in vivo, 0.25 h
Heart [11] = assay: Biodistribution in ddY mouse heart at 0.9 uCi, iv after 120 mins by gamma counting; assay type: ADME, organism-based; conditions: in vivo, 2 h
Lung [12] = assay: Biodistribution in ddY mouse lung at 0.9 uCi, iv after 120 mins by gamma counting; assay type: ADME, organism-based; conditions: in vivo, 2 h
Intestine [13] = assay: Biodistribution in ddY mouse intestine at 0.9 uCi, iv after 120 mins by gamma counting; assay type: ADME, organism-based; conditions: in vivo, 2 h
Stomach [14] = assay: Biodistribution in ddY mouse stomach assessed per organ at 0.9 uCi, iv after 60 mins by gamma counting; assay type: ADME, organism-based; conditions: in vivo, 1 h
Brain [15] = assay: Biodistribution in ddY mouse brain at 0.9 uCi, iv after 30 mins by gamma counting; assay type: ADME, organism-based; conditions: in vivo, 0.5 h
Intestine [16] = assay: Biodistribution in ddY mouse intestine at 0.9 uCi, iv after 60 mins by gamma counting; assay type: ADME, organism-based; conditions: in vivo, 1 h
Liver [17] = assay: Biodistribution in ddY mouse liver at 0.9 uCi, iv after 120 mins by gamma counting; assay type: ADME, organism-based; conditions: in vivo, 2 h
Mus musculus [18] = assay: Biodistribution in ddY mouse thyroid assessed per organ at 0.9 uCi, iv after 120 mins by gamma counting; assay type: ADME, organism-based, Thyroid gland; conditions: in vivo, 2 h
Spleen [19] = assay: Biodistribution in ddY mouse spleen at 0.9 uCi, iv after 120 mins by gamma counting; assay type: ADME, organism-based; conditions: in vivo, 2 h
Lung [20] = assay: Biodistribution in ddY mouse lung at 0.9 uCi, iv after 15 mins by gamma counting; assay type: ADME, organism-based; conditions: in vivo, 0.25 h
Spleen [21] = assay: Biodistribution in ddY mouse spleen at 0.9 uCi, iv after 2 mins by gamma counting; assay type: ADME, organism-based; conditions: in vivo
Blood [22] = assay: Biodistribution in ddY mouse blood at 0.9 uCi, iv after 120 mins by gamma counting; assay type: ADME, organism-based; conditions: in vivo, 2 h
Intestine [23] = assay: Biodistribution in ddY mouse intestine at 0.9 uCi, iv after 30 mins by gamma counting; assay type: ADME, organism-based; conditions: in vivo, 0.5 h
Liver [24] = assay: Biodistribution in ddY mouse liver at 0.9 uCi, iv after 2 mins by gamma counting; assay type: ADME, organism-based; conditions: in vivo
Lung [25] = assay: Biodistribution in ddY mouse lung at 0.9 uCi, iv after 2 mins by gamma counting; assay type: ADME, organism-based; conditions: in vivo
Liver [26] = assay: Biodistribution in ddY mouse liver at 0.9 uCi, iv after 60 mins by gamma counting; assay type: ADME, organism-based; conditions: in vivo, 1 h
Liver [27] = assay: Biodistribution in ddY mouse liver at 0.9 uCi, iv after 15 mins by gamma counting; assay type: ADME, organism-based; conditions: in vivo, 0.25 h
Liver [28] = assay: Biodistribution in ddY mouse liver at 0.9 uCi, iv after 30 mins by gamma counting; assay type: ADME, organism-based; conditions: in vivo, 0.5 h
Brain [29] = assay: Biodistribution in ddY mouse brain at 0.9 uCi, iv after 60 mins by gamma counting; assay type: ADME, organism-based; conditions: in vivo, 1 h
Kidney [30] = assay: Biodistribution in ddY mouse kidney at 0.9 uCi, iv after 15 mins by gamma counting; assay type: ADME, organism-based; conditions: in vivo, 0.25 h
Kidney [31] = assay: Biodistribution in ddY mouse kidney at 0.9 uCi, iv after 120 mins by gamma counting; assay type: ADME, organism-based; conditions: in vivo, 2 h
Stomach [32] = assay: Biodistribution in ddY mouse stomach assessed per organ at 0.9 uCi, iv after 2 mins by gamma counting; assay type: ADME, organism-based; conditions: in vivo
Blood [33] = assay: Biodistribution in ddY mouse blood at 0.9 uCi, iv after 2 mins by gamma counting; assay type: ADME, organism-based; conditions: in vivo
Intestine [34] = assay: Biodistribution in ddY mouse intestine at 0.9 uCi, iv after 2 mins by gamma counting; assay type: ADME, organism-based; conditions: in vivo
Intestine [35] = assay: Biodistribution in ddY mouse intestine at 0.9 uCi, iv after 15 mins by gamma counting; assay type: ADME, organism-based; conditions: in vivo, 0.25 h
Brain [36] = assay: Biodistribution in ddY mouse brain at 0.9 uCi, iv after 120 mins by gamma counting; assay type: ADME, organism-based; conditions: in vivo, 2 h
Heart [37] = assay: Biodistribution in ddY mouse heart at 0.9 uCi, iv after 15 mins by gamma counting; assay type: ADME, organism-based; conditions: in vivo, 0.25 h
Mus musculus [38] = assay: Biodistribution in ddY mouse thyroid assessed per organ at 0.9 uCi, iv after 60 mins by gamma counting; assay type: ADME, organism-based, Thyroid gland; conditions: in vivo, 1 h
Spleen [39] = assay: Biodistribution in ddY mouse spleen at 0.9 uCi, iv after 30 mins by gamma counting; assay type: ADME, organism-based; conditions: in vivo, 0.5 h
Spleen [40] = assay: Biodistribution in ddY mouse spleen at 0.9 uCi, iv after 60 mins by gamma counting; assay type: ADME, organism-based; conditions: in vivo, 1 h
Heart [41] = assay: Biodistribution in ddY mouse heart at 0.9 uCi, iv after 2 mins by gamma counting; assay type: ADME, organism-based; conditions: in vivo
Stomach [42] = assay: Biodistribution in ddY mouse stomach assessed per organ at 0.9 uCi, iv after 30 mins by gamma counting; assay type: ADME, organism-based; conditions: in vivo, 0.5 h
[43] = Lipophilicity, log D of the compound; assay type: physicochemical; conditions: octanol/water
Brain [44] = assay: Ratio of drug level in brain after 2 mins to drug level in brain after 30 mins ddY mouse at 0.9 uCi, iv; assay type: ADME, organism-based; conditions: in vivo
Heart [45] = assay: Biodistribution in ddY mouse heart at 0.9 uCi, iv after 60 mins by gamma counting; assay type: ADME, organism-based; conditions: in vivo, 1 h
Brain [46] = assay: Biodistribution in ddY mouse brain at 0.9 uCi, iv after 2 mins by gamma counting; assay type: ADME, organism-based; conditions: in vivo
Blood [47] = assay: Biodistribution in ddY mouse blood at 0.9 uCi, iv after 30 mins by gamma counting; assay type: ADME, organism-based; conditions: in vivo, 0.5 h
Kidney [48] = assay: Biodistribution in ddY mouse kidney at 0.9 uCi, iv after 2 mins by gamma counting; assay type: ADME, organism-based; conditions: in vivo
Stomach [49] = assay: Biodistribution in ddY mouse stomach assessed per organ at 0.9 uCi, iv after 120 mins by gamma counting; assay type: ADME, organism-based; conditions: in vivo, 2 h
Lung [50] = assay: Biodistribution in ddY mouse lung at 0.9 uCi, iv after 60 mins by gamma counting; assay type: ADME, organism-based; conditions: in vivo, 1 h
Kidney [51] = assay: Biodistribution in ddY mouse kidney at 0.9 uCi, iv after 60 mins by gamma counting; assay type: ADME, organism-based; conditions: in vivo, 1 h
Mus musculus [52] = assay: Biodistribution in ddY mouse thyroid assessed per organ at 0.9 uCi, iv after 15 mins by gamma counting; assay type: ADME, organism-based, Thyroid gland; conditions: in vivo, 0.25 h
Mus musculus [53] = assay: Biodistribution in ddY mouse thyroid assessed per organ at 0.9 uCi, iv after 30 mins by gamma counting; assay type: ADME, organism-based, Thyroid gland; conditions: in vivo, 0.5 h
Heart [54] = assay: Biodistribution in ddY mouse heart at 0.9 uCi, iv after 30 mins by gamma counting; assay type: ADME, organism-based; conditions: in vivo, 0.5 h

CN(C)c1ccc(C(=O)c2cc3cc(Br)ccc3o2)cc1
Ki [1]: 8.8 nM

Nc1ccc(C(=O)c2cc3cc(I)ccc3o2)cc1
Ki [1]: 133 nM

Nc1ccc(C(=O)c2cc3cc(Br)ccc3o2)cc1
Ki [1]: 157 nM

O=C(c1ccc([N+](=O)[O-])cc1)c1cc2cc(I)ccc2o1
Ki [1]: > 1000 nM

O=C(c1ccc([N+](=O)[O-])cc1)c1cc2cc(Br)ccc2o1
Ki [1]: > 1000 nM

CNc1ccc(C(=O)c2cc3cc(Br)ccc3o2)cc1
Ki [1]: 44.9 nM

CN(C)c1ccc(C(=O)c2cc3cc(I)ccc3o2)cc1
Activity (Mus musculus [2]): Active
Ki [1]: 6.6 nM

CNc1ccc(C(=O)c2cc3cc(I)ccc3o2)cc1
Activity (Mus musculus [2]): Active
Ki [1]: 34.5 nM

CN(C)c1ccc(C(=O)c2cc3cc([125I])ccc3o2)cc1
Drug uptake (Kidney [3]): 4.28 % ID/g
Drug uptake (Brain [4]): 2.38 % ID/g
Drug uptake (Spleen [5]): 1.59 % ID/g
Drug uptake (Lung [6]): 1.61 % ID/g
Drug uptake (Mus musculus [7]): 0.02 %ID
Drug uptake (Blood [8]): 1.16 % ID/g
Drug uptake (Blood [9]): 0.82 % ID/g
Drug uptake (Stomach [10]): 1.54 %ID
Drug uptake (Heart [11]): 0.49 % ID/g
Drug uptake (Lung [12]): 0.79 % ID/g
Drug uptake (Intestine [13]): 25.19 % ID/g
Drug uptake (Stomach [14]): 3.1 %ID
Drug uptake (Brain [15]): 1.51 % ID/g
Drug uptake (Intestine [16]): 20.88 % ID/g
Drug uptake (Liver [17]): 3.59 % ID/g
Drug uptake (Mus musculus [18]): 0.8 %ID
Drug uptake (Spleen [19]): 0.43 % ID/g
Drug uptake (Lung [20]): 2.2 % ID/g
Drug uptake (Spleen [21]): 2.75 % ID/g
Drug uptake (Blood [22]): 0.63 % ID/g
Drug uptake (Intestine [23]): 21.81 % ID/g
Drug uptake (Liver [24]): 16.19 % ID/g
Drug uptake (Lung [25]): 7.34 % ID/g
Drug uptake (Liver [26]): 5.09 % ID/g
Drug uptake (Liver [27]): 11 % ID/g
Drug uptake (Liver [28]): 6.7 % ID/g
Drug uptake (Brain [29]): 0.87 % ID/g
Drug uptake (Kidney [30]): 3.84 % ID/g
Drug uptake (Kidney [31]): 1.64 % ID/g
Drug uptake (Stomach [32]): 0.95 %ID
Drug uptake (Blood [33]): 2.56 % ID/g
Drug uptake (Intestine [34]): 3.14 % ID/g
Drug uptake (Intestine [35]): 11.77 % ID/g
Drug uptake (Brain [36]): 0.41 % ID/g
Drug uptake (Heart [37]): 1.45 % ID/g
Drug uptake (Mus musculus [38]): 0.46 %ID
Drug uptake (Spleen [39]): 0.94 % ID/g
Drug uptake (Spleen [40]): 0.66 % ID/g
Drug uptake (Heart [41]): 7.01 % ID/g
Drug uptake (Stomach [42]): 2.6 %ID
logD [43]: 4.4
Ratio (Brain [44]): 2.34
Drug uptake (Heart [45]): 0.74 % ID/g
Drug uptake (Brain [46]): 3.53 % ID/g
Drug uptake (Blood [47]): 1.07 % ID/g
Drug uptake (Kidney [48]): 10.26 % ID/g
Drug uptake (Stomach [49]): 3.76 %ID
Drug uptake (Lung [50]): 0.94 % ID/g
Drug uptake (Kidney [51]): 1.9 % ID/g
Drug uptake (Mus musculus [52]): 0.05 %ID
Drug uptake (Mus musculus [53]): 0.18 %ID
Drug uptake (Heart [54]): 1.15 % ID/g
